What all share (format): cell-based
For experiment [1], the target named is T1, PfCRT^Dd2 (Plasmodium falciparum, UniProt Q9N623, A220S/I356T/K76T/M74I/N326S/N75E/Q271E/R371I). The experiment is described as follows: [3H]CQ uptake into Xenopus oocytes, cis-inhibition by unlabelled solute. The conditions noted are these: PfCRTDd2 oocytes, background [3H]CQ accumulation subtracted, normalised to oocyte type control. The method, boiled down:
(§1)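 Oocytes expressing PfCRT isoforms, or non-expressing controls, were incubated 1.5 h at 27.5 °C in ND96 buffer pH 5.5 (96 mM NaCl, 2 mM KCl, 1 mM MgCl2, 1.8 mM CaCl2, 10 mM MES, 10 mM Tris-base), measuring uptake from acidic medium into cytosol. Oocytes were washed ice-cold, SDS-lysed and counted by scintillation.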

The target of experiment [2] is T2, PfCRT^Ecu1110 (Plasmodium falciparum, UniProt Q9N623, A220S/I356L/K76T/N326D). Described as above. The settings on record: for PfCRT-mediated [3H]CQ transport, cis-inhibition (% PfCRTEcu1110 control): PfCRTEcu1110 oocytes, background [3H]CQ accumulation subtracted, normalised to oocyte type control; for [3H]CQ transport (% PfCRTEcu1110 control), cis-inhibition, PfCRTEcu1110: PfCRT-mediated component (background subtracted), sheet title says normalised to PfCRTDd2 control, mean ± SEM, SEM. An outline of the steps: as §1

The target of experiment [3] is PfCRT^3D7 (Plasmodium falciparum, UniProt Q8IBZ9). The experiment is described as follows: cell-based. The conditions noted are these: PfCRT3D7 oocytes, normalised to oocyte type control. An outline of the steps: (§2)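 Transport measured in Xenopus oocytes expressing the transporters, 1.5 h at 27.5 °C in ND96 pH 5.5 unless noted. For trans-stimulation, VF-6 injected in 25 nL ND96 at pH 5.0–7.0 or Na^+-free (choline) buffer; intracellular levels based on ~400 nL oocyte volume. Ten oocytes per treatment, ≥4 experiments.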

Experiment [4] concerns the target T1, PfCRT^Dd2. Kind of experiment: cell-based. The conditions noted are these: for PfCRT-mediated [3H]CQ transport, trans-stimulation (% PfCRTDd2 control): PfCRTDd2 oocytes, normalised to oocyte type control; for [3H]CQ transport (% PfCRTDd2 control), trans-stimulation, PfCRTDd2: PfCRT-mediated component (background subtracted), mean ± SEM, SEM. The method, boiled down: as §2

The target in experiment [5] is T2, PfCRT^Ecu1110. The experiment is described as follows: cell-based. The settings on record: for PfCRT-mediated [3H]CQ transport, trans-stimulation (% PfCRTEcu1110 control): PfCRTEcu1110 oocytes, normalised to oocyte type control; for [3H]CQ transport (% PfCRTDd2 control), trans-stimulation, PfCRTEcu1110: PfCRT-mediated component (background subtracted), sheet title says normalised to PfCRTDd2 control, mean ± SEM, SEM. The method, boiled down: as §2

[6] abbreviates: [test solute]i = 5 mM (intracellular).
Where [7] appears, read: [test solute]i = 45 mM (intracellular; 30 mM for some solutes due to solubility).
Where [8] appears, read: [test solute]i = 5 mM (injected).
[9] abbreviates: [test solute]i = 45 mM (30 mM for some solutes due to solubility).

Chain of PfCRT^3D7 (Q8IBZ9 59-398): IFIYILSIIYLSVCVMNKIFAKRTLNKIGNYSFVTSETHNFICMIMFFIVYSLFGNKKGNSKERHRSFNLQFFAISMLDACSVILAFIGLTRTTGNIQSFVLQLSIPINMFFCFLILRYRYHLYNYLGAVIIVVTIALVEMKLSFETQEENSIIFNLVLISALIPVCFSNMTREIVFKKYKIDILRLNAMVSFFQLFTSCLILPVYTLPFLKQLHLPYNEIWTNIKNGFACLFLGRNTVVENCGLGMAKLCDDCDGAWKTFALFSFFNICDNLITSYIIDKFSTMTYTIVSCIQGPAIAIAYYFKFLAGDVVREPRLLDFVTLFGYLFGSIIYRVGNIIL
T1 sequence (Q9N623 whole entry A220S/I356T/K76T/M74I/N326S/N75E/Q271E/R371I, canonical isoform): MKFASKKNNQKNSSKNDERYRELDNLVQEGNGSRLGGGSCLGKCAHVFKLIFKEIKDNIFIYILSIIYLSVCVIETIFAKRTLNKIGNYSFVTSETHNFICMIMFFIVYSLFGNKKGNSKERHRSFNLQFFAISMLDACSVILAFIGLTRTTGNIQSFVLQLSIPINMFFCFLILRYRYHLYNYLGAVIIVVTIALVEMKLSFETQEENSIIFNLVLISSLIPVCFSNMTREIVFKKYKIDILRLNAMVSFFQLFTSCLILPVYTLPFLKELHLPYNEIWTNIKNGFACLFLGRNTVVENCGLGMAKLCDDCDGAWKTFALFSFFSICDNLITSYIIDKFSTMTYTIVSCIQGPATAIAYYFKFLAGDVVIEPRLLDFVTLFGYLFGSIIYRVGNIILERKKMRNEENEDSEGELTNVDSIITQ
T2 sequence (Q9N623 whole entry A220S/I356L/K76T/N326D): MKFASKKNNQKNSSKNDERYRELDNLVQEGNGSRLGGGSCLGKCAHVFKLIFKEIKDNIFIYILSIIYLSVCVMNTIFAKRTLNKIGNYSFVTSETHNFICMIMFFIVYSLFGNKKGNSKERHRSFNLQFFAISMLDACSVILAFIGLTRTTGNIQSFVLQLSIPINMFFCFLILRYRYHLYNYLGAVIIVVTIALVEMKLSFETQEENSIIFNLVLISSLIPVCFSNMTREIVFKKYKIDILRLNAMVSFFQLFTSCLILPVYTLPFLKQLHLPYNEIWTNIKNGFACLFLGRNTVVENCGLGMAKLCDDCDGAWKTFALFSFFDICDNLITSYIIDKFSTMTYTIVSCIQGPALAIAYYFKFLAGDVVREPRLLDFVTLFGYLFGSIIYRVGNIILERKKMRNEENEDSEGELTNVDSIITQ

As for VDPVNFK [VK-7], the figures for the “PfCRT-mediated [3H]CQ transport, cis-inhibition (% PfCRTDd2 control)” value in experiment [1] ([test solute] = 0.5 mM), in experiment [1] ([test solute] = 1 mM) and in experiment [1] ([test solute] = 2 mM) were 17 ± 0.3 % PfCRTDd2 control, 9 ± 0.1 % PfCRTDd2 control and 3.2 ± 0.1 % PfCRTDd2 control, respectively. The “PfCRT-mediated [3H]CQ transport, cis-inhibition (% PfCRTEcu1110 control)” value is reported as 40 ± 2.5 % PfCRTEcu1110 control in experiment [2] ([test solute] = 0.5 mM), 27 ± 4.1 % PfCRTEcu1110 control in experiment [2] ([test solute] = 1 mM) and 22 ± 2.4 % PfCRTEcu1110 control in experiment [2] ([test solute] = 2 mM). The figures for the “[3H]CQ transport (% PfCRTEcu1110 control), cis-inhibition, PfCRTEcu1110” value in experiment [2] ([test solute] = 0.5 mM), in experiment [2] ([test solute] = 1 mM) and in experiment [2] ([test solute] = 2 mM) were 13 ± 0.6 % PfCRTEcu1110 control, 9.0 ± 0.02 % PfCRTEcu1110 control and 7.0 ± 0.04 % PfCRTEcu1110 control, respectively. For the same substance, the entries for the “PfCRT-mediated [3H]CQ transport, trans-stimulation (% PfCRT3D7 control)” value (from here on “PfCRT-mediated … (% PfCRT3D7 control)”) in experiment [3] (setting [6]) and in experiment [3] (setting [7]) were 128 ± 3.2 % PfCRT3D7 control and 179 ± 5.3 % PfCRT3D7 control, respectively. Further, the “PfCRT-mediated [3H]CQ transport, trans-stimulation (% PfCRTDd2 control)” value in experiment [4] (setting [6]) is on record as 100 ± 4.2 % PfCRTDd2 control; in experiment [4] (setting [7]), 98 ± 2.2 % PfCRTDd2 control. For the same substance, the “[3H]CQ transport (% PfCRTDd2 control), trans-stimulation, PfCRTDd2” value is given as 100 ± 4.2 % PfCRTDd2 control in experiment [4] (setting [8]) and 98 ± 2.2 % PfCRTDd2 control in experiment [4] (setting [9]). Further, the “PfCRT-mediated [3H]CQ transport, trans-stimulation (% PfCRTEcu1110 control)” value is listed as 132 ± 3.5 % PfCRTEcu1110 control in experiment [5] (setting [6]) and 138 ± 4.1 % PfCRTEcu1110 control in experiment [5] (setting [7]). In addition, the “[3H]CQ transport (% PfCRTDd2 control), trans-stimulation, PfCRTEcu1110” value in experiment [5] (setting [8]) worked out at 40 ± 2.1 % PfCRTEcu1110 control; in experiment [5] (setting [9]) it was 42 ± 2.4 % PfCRTEcu1110 control.

In the case of VHLT [VT-4], the “PfCRT-mediated [3H]CQ transport, cis-inhibition (% PfCRTDd2 control)” value is 51 ± 2.0 % PfCRTDd2 control in experiment [1] ([test solute] = 0.5 mM), 39 ± 2.8 % PfCRTDd2 control in experiment [1] ([test solute] = 1 mM) and 16 ± 0.4 % PfCRTDd2 control in experiment [1] ([test solute] = 2 mM). Further, the “PfCRT-mediated [3H]CQ transport, cis-inhibition (% PfCRTEcu1110 control)” value in experiment [2] ([test solute] = 0.5 mM) worked out at 56 ± 4.1 % PfCRTEcu1110 control; in experiment [2] ([test solute] = 1 mM), 39 ± 4.1 % PfCRTEcu1110 control; in experiment [2] ([test solute] = 2 mM), 27 ± 1.4 % PfCRTEcu1110 control. Further, the figures for the “[3H]CQ transport (% PfCRTEcu1110 control), cis-inhibition, PfCRTEcu1110” value in experiment [2] ([test solute] = 0.5 mM) and in experiment [2] ([test solute] = 2 mM) were 18 ± 0.3 % PfCRTEcu1110 control and 9.0 ± 0.2 % PfCRTEcu1110 control, respectively. Moreover, the “PfCRT-mediated … (% PfCRT3D7 control)” value was determined as 97 ± 3.2 % PfCRT3D7 control in experiment [3] (setting [6]) and 95 ± 4.7 % PfCRT3D7 control in experiment [3] (setting [7]). The “PfCRT-mediated [3H]CQ transport, trans-stimulation (% PfCRTDd2 control)” value is 97 ± 4.6 % PfCRTDd2 control in experiment [4] (setting [6]) and 98 ± 3.2 % PfCRTDd2 control in experiment [4] (setting [7]). Further, the “[3H]CQ transport (% PfCRTDd2 control), trans-stimulation, PfCRTDd2” value in experiment [4] (setting [8]) worked out at 97 ± 4.6 % PfCRTDd2 control; in experiment [4] (setting [9]), 98 ± 3.2 % PfCRTDd2 control. For the same substance, the “PfCRT-mediated [3H]CQ transport, trans-stimulation (% PfCRTEcu1110 control)” value in experiment [5] (setting [6]) came to 99 ± 3.2 % PfCRTEcu1110 control; in experiment [5] (setting [7]) it was 97 ± 3.6 % PfCRTEcu1110 control. For the same substance, the “[3H]CQ transport (% PfCRTDd2 control), trans-stimulation, PfCRTEcu1110” value is recorded as 30 ± 1.3 % PfCRTEcu1110 control in experiment [5] (setting [8]) and 29 ± 1.5 % PfCRTEcu1110 control in experiment [5] (setting [9]).

As to VHLTPEEK [VK-8], the “PfCRT-mediated [3H]CQ transport, cis-inhibition (% PfCRTDd2 control)” value was 69 ± 3.1 % PfCRTDd2 control in experiment [1] ([test solute] = 0.5 mM), 63 ± 5.2 % PfCRTDd2 control in experiment [1] ([test solute] = 1 mM) and 25 ± 0.3 % PfCRTDd2 control in experiment [1] ([test solute] = 2 mM). Also, the figures for the “PfCRT-mediated [3H]CQ transport, cis-inhibition (% PfCRTEcu1110 control)” value in experiment [2] ([test solute] = 0.5 mM), in experiment [2] ([test solute] = 1 mM) and in experiment [2] ([test solute] = 2 mM) were 64 ± 2.7 % PfCRTEcu1110 control, 49 ± 3.1 % PfCRTEcu1110 control and 41 ± 2.3 % PfCRTEcu1110 control, respectively. For the same substance, the “PfCRT-mediated … (% PfCRT3D7 control)” value in experiment [3] (setting [6]) is given as 132 ± 3.2 % PfCRT3D7 control; in experiment [3] (setting [7]), 166 ± 4.2 % PfCRT3D7 control. Also, the “PfCRT-mediated [3H]CQ transport, trans-stimulation (% PfCRTDd2 control)” value in experiment [4] (setting [6]) was determined as 100 ± 3.4 % PfCRTDd2 control; in experiment [4] (setting [7]) it was 98 ± 2.3 % PfCRTDd2 control. Besides, the figures for the “PfCRT-mediated [3H]CQ transport, trans-stimulation (% PfCRTEcu1110 control)” value in experiment [5] (setting [6]) and in experiment [5] (setting [7]) were 98 ± 2.9 % PfCRTEcu1110 control and 100 ± 4.2 % PfCRTEcu1110 control, respectively.

With VLSPAD [VD-6], the entries for the “PfCRT-mediated [3H]CQ transport, cis-inhibition (% PfCRTDd2 control)” value in experiment [1] ([test solute] = 0.5 mM), in experiment [1] ([test solute] = 1 mM) and in experiment [1] ([test solute] = 2 mM) were 47 ± 1.8 % PfCRTDd2 control, 28 ± 1.1 % PfCRTDd2 control and 29 ± 1.0 % PfCRTDd2 control, respectively. Moreover, the “PfCRT-mediated [3H]CQ transport, cis-inhibition (% PfCRTEcu1110 control)” value in experiment [2] ([test solute] = 0.5 mM) is given as 58 ± 3.5 % PfCRTEcu1110 control; in experiment [2] ([test solute] = 1 mM) it was 48 ± 3.2 % PfCRTEcu1110 control; in experiment [2] ([test solute] = 2 mM), 39 ± 0.4 % PfCRTEcu1110 control. The “[3H]CQ transport (% PfCRTEcu1110 control), cis-inhibition, PfCRTEcu1110” value in experiment [2] ([test solute] = 2 mM) amounted to 12 ± 0.01 % PfCRTEcu1110 control. In addition, the “PfCRT-mediated … (% PfCRT3D7 control)” value is given as 97 ± 4.2 % PfCRT3D7 control in experiment [3] (setting [6]) and 95 ± 4.1 % PfCRT3D7 control in experiment [3] (setting [7]). For the same substance, the “PfCRT-mediated [3H]CQ transport, trans-stimulation (% PfCRTDd2 control)” value was found to be 101 ± 3.6 % PfCRTDd2 control in experiment [4] (setting [6]) and 98 ± 3.3 % PfCRTDd2 control in experiment [4] (setting [7]). The “[3H]CQ transport (% PfCRTDd2 control), trans-stimulation, PfCRTDd2” value in experiment [4] (setting [8]) was 101 ± 3.6 % PfCRTDd2 control; in experiment [4] (setting [9]), 98 ± 3.3 % PfCRTDd2 control. For the same substance, the “PfCRT-mediated [3H]CQ transport, trans-stimulation (% PfCRTEcu1110 control)” value in experiment [5] (setting [6]) turned out to be 98 ± 3.2 % PfCRTEcu1110 control; in experiment [5] (setting [7]) it was 98 ± 3.3 % PfCRTEcu1110 control. Besides, the “[3H]CQ transport (% PfCRTDd2 control), trans-stimulation, PfCRTEcu1110” value turned out to be 30 ± 1.3 % PfCRTEcu1110 control in experiment [5] (setting [8]) and 30 ± 1.4 % PfCRTEcu1110 control in experiment [5] (setting [9]).

As to VVYPWTQR [VR-8], the “PfCRT-mediated [3H]CQ transport, cis-inhibition (% PfCRTDd2 control)” value in experiment [1] ([test solute] = 0.5 mM) is on record as 40 ± 3.2 % PfCRTDd2 control; in experiment [1] ([test solute] = 1 mM) it was 22 ± 1.1 % PfCRTDd2 control; in experiment [1] ([test solute] = 2 mM), 11 ± 0.8 % PfCRTDd2 control. Also, the entries for the “PfCRT-mediated [3H]CQ transport, cis-inhibition (% PfCRTEcu1110 control)” value in experiment [2] ([test solute] = 0.5 mM), in experiment [2] ([test solute] = 1 mM) and in experiment [2] ([test solute] = 2 mM) were 42 ± 2.6 % PfCRTEcu1110 control, 32 ± 1.9 % PfCRTEcu1110 control and 21 ± 1.4 % PfCRTEcu1110 control, respectively. Also, the “PfCRT-mediated … (% PfCRT3D7 control)” value in experiment [3] (setting [6]) worked out at 96 ± 2.8 % PfCRT3D7 control; in experiment [3] (setting [7]), 98 ± 2.9 % PfCRT3D7 control. In addition, the “PfCRT-mediated [3H]CQ transport, trans-stimulation (% PfCRTDd2 control)” value stood at 96 ± 1.4 % PfCRTDd2 control in experiment [4] (setting [6]) and 95 ± 1.5 % PfCRTDd2 control in experiment [4] (setting [7]). Moreover, the results for the “PfCRT-mediated [3H]CQ transport, trans-stimulation (% PfCRTEcu1110 control)” value in experiment [5] (setting [6]) and in experiment [5] (setting [7]) were 97 ± 1.8 % PfCRTEcu1110 control and 98 ± 3.7 % PfCRTEcu1110 control, respectively.

Source of the values: PMC7413254 (Nature Communications, 2020).
